Experiments:
children with autism = settings: cited from earlier work
[1] = system: methionine cycle function; settings: for improvement with known intermediates and support supplements of the methionine cycle: Case 3, supplements taken together in the month before liposomal glutathione; for blood pressure after initiating the therapies / how the patient felt a few days after initiating the therapies: in vivo
Description: The elevation of histamine is also an indicator of decreased methylation function as it is inactivated by histamine-methyl transferase.
During the month prior to evaluation the MM initiated therapy with SAMe, folate, betaine (trimethyl glycine), N-acetylcysteine and B12 by injection and oral glutathione (neat, not in the form of the invention).

[2] = 3 grams by oral ingestion; cited from earlier work
children = test: Practical experience and clinical observation of children using methylcobalamin by injection; format: in vivo, human
[3] = 800 μg folinic acid and 1000 mg betaine twice daily, 3 months
[4] = after a month of injection therapy
[5] = second intervention, injectable methylcobalamin added to folinic acid and betaine

| how the patient felt a few days after initiating the therapies [1] | Compound | improvement with known intermediates and support supplements of the methionine cycle [1] | blood pressure after initiating the therapies [1] | further results |
| --- | --- | --- | --- | --- |
| – | Nc1nc(=O)c2c([nH]1)NCC(CNc1ccc(C(=O)N[C@@H](CCC(=O)O)C(=O)O)cc1)N2C=O (mixture of isomers) [folinic acid] | – | – | methionine cycle metabolites versus concentrations in controls (children with autism; [3]): effective in normalizing; total GSH (tGSH) or GSSG concentrations or tGSH:GSSG ratio (children with autism; [3]): improved but did not normalize |
| felt worse | CC(=O)N[C@@H](CS)C(=O)O [N-acetylcysteine] | did not improve | 170/120 | – |
| felt worse | C[N+](C)(C)CC(=O)O [betaine, trimethyl glycine] | – | 170/120 | – |
| felt worse | Nc1nc2ncc(CNc3ccc(C(=O)N[C@@H](CCC(=O)O)C(=O)O)cc3)nc2c(=O)[nH]1 [folic acid] | did not improve | 170/120 | – |
| felt worse | N[C@@H](CCC(=O)N[C@@H](CS)C(=O)NCC(=O)O)C(=O)O [glutathione, gamma-glutamyl-cysteinyl-glycine] | did not improve | 170/120 | plasma glutathione levels [2]: does not elevate |
| – | C/C1=C2/[N-][C@H]([C@H](CC(N)=O)[C@@]2(C)CCC(=O)NC[C@@H](C)OP(=O)([O-])O[C@H]2[C@@H](O)[C@@H](n3cnc4cc(C)c(C)cc43)O[C@@H]2CO)[C@]2(C)N=C(/C(C)=C3N=C(/C=C4N=C1[C@@H](CCC(N)=O)C\4(C)C)[C@@H](CCC(N)=O)[C@]\3(C)CC(N)=O)[C@@H](CCC(N)=O)[C@]2(C)CC(N)=O.[CH3-].[Co+3] [methylcobalamin] | – | – | GSSG (children with autism; [4]): decreased; level of total GSH (tGSH) (children with autism; [4]): increased; tGSH:GSSG ratio (glutathione redox profile) (children with autism; [4]): normalization; speech and cognition (children with autism; injection therapy, children with autism): improvement in speech and cognition; concentration of adenosine and GSSG (children with autism; [5]): further decrease; concentrations of methionine, cysteine, tGSH and SAM:SAH and tGSH:GSSG ratios (children with autism; [5]): further increase; irritability (children; many children, methylcobalamin by injection): substantially increased irritability; SAH (children; methylcobalamin by itself, preliminary data): can cause an increase |
| felt worse | cyanocobalamin [B12 (cyanocobalamin)] | did not improve | 170/120 | – |

| Compound | how the patient felt a few days after initiating the therapies [1] | improvement with known intermediates and support supplements of the methionine cycle [1] | blood pressure after initiating the therapies [1] | further results |
| --- | --- | --- | --- | --- |
| C[S+](CC[C@H](N)C(=O)[O-])C[C@H]1O[C@@H](n2cnc3c(N)ncnc32)[C@H](O)[C@@H]1O (stereo partly shown) [SAMe, S-Adenosylmethionine] | felt worse | did not improve | 170/120 | – |

From patent US20100291196A1, “METHOD OF TREATMENT OF AUTISM SPECTRUM DISORDER WITH LIPOSOMAL REDUCED GLUTATHIONE” (priority 2005, published 2010)
